Results as given in publication PMC4257840 (Journal of Medicinal Chemistry, 2014).
Like-named read-outs stand apart in the source and are kept apart here.

How the values were obtained:
Cathepsin D = target: T1, Cathepsin D (Homo sapiens, UniProt P07339); assay: Protease counter-screening: Cathepsin D; assay type: biochemical
T1 construct: purified from human li ver; from tissue; host or cells: human liver
Protocol: (§1) Appendix 7. Protease Counter -Screening
(§2) Protease counter-screeni ng was performed using the methods described below. Initial screening was conducted in duplicate using a single test substance concentration of 10 µ M .
(§3) Additional assays were conducted in replicate for selected pairin gs of test s ubstance and enz yme in order to enable the determination of IC50 values using conventional procedures.
(§4) Determination of K i was made using the Batch K i program (Biokin Ltd, Pullman, WA) to derive values from the Morrison equation: […]
(§5) Where [E ] is the active enz yme concentration, Kiapp is the apparent inhibition const ant, v 0 is the control velocit y in the absence of inhibitors, vb is the background velocity, v is the initial reaction velocit y in the presence of inhibitor, and I is the inhibitor concentration.Thence:
(§6) Where [S ] is the substrate concentration and KM is the Michealis constant.
(§7) Caspase 1: Activity against human recombinant caspase 1 expressed in E. coli was tested using Ac-YVAD- AMC as the substrate. Test compound or vehicle was pre- incubated with 600 […]
(§8) Cathep sin D: Tests were performed using enz ym e purified from human li ver. Test compound or vehicle was pre- incubated with 190 mU/mL enz yme in modified acetate buffer pH 4.0 for 15 min at 37 °C. […]
(§9) The amount of MCA-P LG formed was measured spectrofluorimetricall y at 340 nm/400 nm. […]

Human cathepsin E = target: T2, Human cathepsin E (Homo sapiens, UniProt P14091); assay: Protease counter-screening: Cathepsin E; assay type: biochemical
T2 construct: host or cells: NS0 murine myeloma cell line
Protocol: as §1, §2, §3, §4, §5, §6, §7, §8, §9

[1] = target: T3, Factor VIIa from human plasma (Homo sapiens, UniProt P08709); assay: Protease counter-screening: Factor VIIa; assay type: biochemical
T3 construct: incubated with 25 nM Factor VIIa from; from tissue; host or cells: human plasma
Protocol: as §1, §2, §3, §4, §5
(§10) Where [S ] is the substrate concentration and KM is the Michealis constant. […]
Test compound or vehicle was pre- incubated with 600
Factor VIIa: Test compound or vehicle was pre- incubated with 25 nM Factor VIIa from human plasma in modified 50 mM Tris-HCl buffer pH 7.6 for 15 min at 25 °C. The reaction was initiated by addition of 1 µM N-CH3-SO2-D-FGR-pNA for another 120 min incubation period.
The amount of pNA formed was read spectrophotometricall y at 405 nm. […]

[2] = target: T4, Factor Xa from human plasma (Homo sapiens, UniProt P00742); assay: Protease counter-screening: Factor Xa; assay type: biochemical
T4 construct: containing 0.4 nM Factor Xa from human plasma; from tissue; host or cells: human plasma
Protocol: as §1, §2, §3, §4, §5, §10
Test compound or vehicle was pre- incubated with 600 […]
The reaction was […]
initiated by addition of 1 µM N-CH3-SO2-D-FGR-pNA for another 120 min incubation period.
The amount of pNA formed was read spectrophotometricall y at 405 nm.
Factor Xa: Test compound or vehicle was pre -incubated for 15 min at 25 °C in modified 50 mM Tris-HCl buffer pH 7.6 containing 0.4 nM Factor Xa from human plasma. The reaction was initiated by addition of 0.3 mM N-a-Z-D-RGR-pNA for another 60 min incubation period. […]

human liver Cat B = human liver Cat B (Homo sapiens, UniProt P07858); assay: Cathepsin B inhibition assay
Protocol: Inhibition of Cat B was measured as described with modifications.[25] […] Progress curves were followed at 30 °C by detection of fluorescence at 320/420 nm (excitation/emission).
In all cases, for reactions involving inhibitors, the amount of reaction buffer was adjusted to 60 μL, the inhibitor added as a 10 μL aliquot, and incubated for 20 min with the enzyme prior to reaction start.

T1 sequence (P07339 65-412): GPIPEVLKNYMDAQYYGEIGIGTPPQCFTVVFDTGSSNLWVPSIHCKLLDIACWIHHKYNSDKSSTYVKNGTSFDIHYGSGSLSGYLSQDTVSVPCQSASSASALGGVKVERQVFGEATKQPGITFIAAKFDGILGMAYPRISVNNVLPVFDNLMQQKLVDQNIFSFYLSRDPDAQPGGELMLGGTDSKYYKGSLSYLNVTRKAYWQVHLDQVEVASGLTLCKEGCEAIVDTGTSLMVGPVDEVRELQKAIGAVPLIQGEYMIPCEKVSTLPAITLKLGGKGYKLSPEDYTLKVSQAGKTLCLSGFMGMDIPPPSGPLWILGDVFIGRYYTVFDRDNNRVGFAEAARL
T3 sequence (P08709 213-466 limits assumed): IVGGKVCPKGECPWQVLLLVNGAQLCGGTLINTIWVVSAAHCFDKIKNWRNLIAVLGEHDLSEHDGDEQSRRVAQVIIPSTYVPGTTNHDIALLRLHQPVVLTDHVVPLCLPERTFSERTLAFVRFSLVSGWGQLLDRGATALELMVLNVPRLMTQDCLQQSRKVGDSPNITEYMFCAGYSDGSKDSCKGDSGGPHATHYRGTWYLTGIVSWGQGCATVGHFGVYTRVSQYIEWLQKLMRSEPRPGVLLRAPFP
T3 sequence (P08709 61-212 limits assumed): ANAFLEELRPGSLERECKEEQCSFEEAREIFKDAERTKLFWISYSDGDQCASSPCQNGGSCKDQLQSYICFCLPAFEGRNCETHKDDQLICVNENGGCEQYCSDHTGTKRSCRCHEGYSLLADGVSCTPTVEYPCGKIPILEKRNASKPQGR
T2 sequence (P14091 54-396): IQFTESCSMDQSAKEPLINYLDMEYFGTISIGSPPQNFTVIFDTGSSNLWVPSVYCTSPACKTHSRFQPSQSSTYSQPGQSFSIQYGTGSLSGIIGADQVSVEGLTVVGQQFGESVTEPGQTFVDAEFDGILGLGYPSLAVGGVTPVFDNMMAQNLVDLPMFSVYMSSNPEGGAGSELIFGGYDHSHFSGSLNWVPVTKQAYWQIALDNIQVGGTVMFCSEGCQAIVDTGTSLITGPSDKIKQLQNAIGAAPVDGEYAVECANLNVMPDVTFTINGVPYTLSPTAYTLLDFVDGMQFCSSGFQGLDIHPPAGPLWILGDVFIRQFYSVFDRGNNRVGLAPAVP
T4 sequence (P00742 235-488 limits assumed): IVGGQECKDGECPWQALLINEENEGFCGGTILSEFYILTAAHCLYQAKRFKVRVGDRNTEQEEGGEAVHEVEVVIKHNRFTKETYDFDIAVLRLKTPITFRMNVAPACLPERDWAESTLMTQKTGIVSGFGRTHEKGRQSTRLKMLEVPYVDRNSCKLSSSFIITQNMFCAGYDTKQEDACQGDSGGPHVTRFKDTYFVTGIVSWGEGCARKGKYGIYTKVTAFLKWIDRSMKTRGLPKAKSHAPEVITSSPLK
T4 sequence (P00742 41-179 limits assumed): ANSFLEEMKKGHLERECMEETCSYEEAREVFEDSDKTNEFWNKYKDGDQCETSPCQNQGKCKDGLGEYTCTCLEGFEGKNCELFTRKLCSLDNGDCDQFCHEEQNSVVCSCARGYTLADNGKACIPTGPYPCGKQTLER

CC(C)[C@H](NC(=O)[C@H](C)NC(=O)[C@@H](NC(=O)c1ccccc1)C(C)(C)C)C(=O)C(=O)NCc1ccccc1 [Compound 38, N-{(S)-1-[(S)-1-((S)-1-Benzylaminooxalyl-2-methyl-propylcarbamoyl)-ethylcarbamoyl]-2,2-dimethyl-propyl}-benzamide]
inhibition at 10 µM (Cathepsin D): 2% | inhibition at 10 µM (Human cathepsin E): 23% | inhibition at 10 µM [1]: 1% | inhibition at 10 µM [2]: 7% | IC50 (human liver Cat B; read-out: Cat B IC50, mean ± SE): 512 ± 59 nM | IC50 (human liver Cat B; read-out: Cathepsin B IC50, Table S1 counter-screening): 510 nM
